Data as given in patent US20200061092A1, “METHODS AND COMPOSITIONS FOR TREATING DISORDERS ASSOCIATED WITH MUSCLE WEAKNESS” (priority 2018, published 2020).

How the values were obtained:
C2C12 myotubes = experiment: LC/MS-MS of isotopically labeled metabolites in differentiated C2C12 myotubes; assay type: cell-based, mouse; conditions: 5 mM, 5 days
[1] = tested on: muscular dystrophy caused by FKRP mutations; experiment: Ribitol/ribose supplementation in animal model of FKRP mutation muscular dystrophy; assay type: in vivo; conditions: supplement via drinking water

| Compound | Levels of 13C-ribitol-5P and CDP-13C-ribitol in cells (C2C12 myotubes) | Disease pathology of muscular dystrophy caused by FKRP mutations [1] |
| --- | --- | --- |
| ^13C5-ribitol [^13C-ribitol] | clearly elevated levels |  |
| O=C[C@H](O)[C@H](O)[C@H](O)CO [ribose] |  | diminish disease pathology |
